According to US20100105661A1, “CONDENSED PYRIDINE COMPOUND” (Astellas Pharma Inc., priority 2007, published 2010):

biological target: HERG (Homo sapiens, UniProt Q12809); assay: HERG assay; conditions: low adverse effect
Sequence (Q12809 whole entry): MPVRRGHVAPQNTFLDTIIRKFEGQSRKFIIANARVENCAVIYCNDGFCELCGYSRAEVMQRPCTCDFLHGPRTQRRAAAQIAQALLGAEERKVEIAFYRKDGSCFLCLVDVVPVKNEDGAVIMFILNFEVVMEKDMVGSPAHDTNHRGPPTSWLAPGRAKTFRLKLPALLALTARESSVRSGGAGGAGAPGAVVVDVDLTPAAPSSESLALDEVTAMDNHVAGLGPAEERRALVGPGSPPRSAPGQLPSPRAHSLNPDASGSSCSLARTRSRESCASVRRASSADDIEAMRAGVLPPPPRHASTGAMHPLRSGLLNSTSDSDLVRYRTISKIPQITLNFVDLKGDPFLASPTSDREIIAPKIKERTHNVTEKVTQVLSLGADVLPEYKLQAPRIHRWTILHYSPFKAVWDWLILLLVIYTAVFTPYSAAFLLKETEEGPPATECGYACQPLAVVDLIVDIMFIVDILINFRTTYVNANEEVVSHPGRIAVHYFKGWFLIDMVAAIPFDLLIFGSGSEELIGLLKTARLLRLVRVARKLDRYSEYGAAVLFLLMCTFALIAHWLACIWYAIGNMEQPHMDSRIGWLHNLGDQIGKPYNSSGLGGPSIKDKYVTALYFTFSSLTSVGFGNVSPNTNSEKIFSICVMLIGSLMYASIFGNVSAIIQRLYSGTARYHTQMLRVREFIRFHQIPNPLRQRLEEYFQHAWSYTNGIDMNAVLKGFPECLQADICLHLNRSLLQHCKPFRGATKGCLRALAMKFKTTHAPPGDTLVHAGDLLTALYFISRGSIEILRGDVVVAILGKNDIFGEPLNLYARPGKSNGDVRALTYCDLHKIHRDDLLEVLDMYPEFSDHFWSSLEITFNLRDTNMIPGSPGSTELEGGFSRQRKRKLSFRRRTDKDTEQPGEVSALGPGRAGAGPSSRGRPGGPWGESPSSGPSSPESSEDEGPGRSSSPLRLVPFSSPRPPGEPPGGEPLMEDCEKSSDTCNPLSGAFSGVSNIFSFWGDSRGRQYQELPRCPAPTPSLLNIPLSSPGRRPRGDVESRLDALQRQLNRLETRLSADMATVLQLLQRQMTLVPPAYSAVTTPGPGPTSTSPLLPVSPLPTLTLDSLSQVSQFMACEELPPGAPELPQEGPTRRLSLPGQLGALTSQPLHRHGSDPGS

SMILES | IC50 [nM]
N#Cc1ccc(N2CC[C@@H](Nc3c(C(N)=O)cnc4[nH]ccc34)[C@@H](F)C2)nc1 (racemic) [Example 41] | ≥ 100000

biological target: T1, human JAK3 kinase domain (Homo sapiens, UniProt P52333); assay: JAK3 inhibition test; type: biochemical; conditions: 20 μM ATP in substrate solution, Biotin-Lyn-Substrate-2, one hour at ambient temperature; compounds of the Examples
T1 construct: attached to the N-terminal of the 796-1124 (C-terminal) fragment of the human JAK3 protein; His-tag (N); purchased Carna Biosciences, Inc. (Kobe, Japan); host or cells: baculovirus expression system
Experimental: The JAK3 inhibition test was performed as described below
Purified human JAK3 kinase domain was purchased from Carna Biosciences, Inc. (Kobe, Japan). This was afforded as described below.
As an assay buffer, 15 mM Tris-HCl pH 7.5 containing 0.01% Tween 20 and 2 mM DTT (dithiothreitol) was used.
After incubation at ambient temperature for one hour, the plate was washed with a cleaning buffer (50 mM Tris-HCl pH 7.5, 150 mM NaCl, 0.02% Tween 20), and a blocking buffer (a cleaning buffer containing 0.1% bovine serum albumin) was added to the plate. After incubation at ambient temperature for 30 minutes, the blocking buffer was removed, and an HRP-PY-20 solution (afforded by diluting HRP-PY-20 solution with the blocking buffer 500 times) was added. After incubation at ambient temperature for 30 minutes, the plate was washed four times, and a TMB substrate solution (Sigma) was added to the plate. After incubation at ambient temperature for 4 minutes, 1M sulfuric acid was added to stop the reaction. Enzyme activity was measured as absorbance at 450 nm.

T1 sequence (P52333 796-1124): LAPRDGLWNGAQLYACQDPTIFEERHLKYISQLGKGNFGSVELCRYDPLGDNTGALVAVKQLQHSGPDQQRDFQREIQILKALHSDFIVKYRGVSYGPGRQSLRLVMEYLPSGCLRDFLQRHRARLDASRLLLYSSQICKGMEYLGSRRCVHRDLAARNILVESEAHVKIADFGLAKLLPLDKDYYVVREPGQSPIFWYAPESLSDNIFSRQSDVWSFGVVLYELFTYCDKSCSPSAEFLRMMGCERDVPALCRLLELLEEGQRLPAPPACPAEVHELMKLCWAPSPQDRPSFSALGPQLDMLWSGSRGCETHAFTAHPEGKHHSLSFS

SMILES | IC50 [nM]
C[C@@H]1CCN(C(=O)N2C[C@@H](F)C[C@H]2C#N)C[C@@H]1n1c(=O)[nH]c2cnc3[nH]ccc3c21 (mixture of isomers) [Example 2, (2R,4R)-4-fluoro-1-{[(3S,4S)-4-methyl-3-(2-oxo-3,6-dihydroimidazo[4,5-d]pyrrolo[2,3-b]pyridine-1(2H)-yl)-piperidine-1-yl]carbonyl}pyrrolidine-2-carbonitrile and (2R,4R)-4-fluoro-1-{[(3R,4R)-4-methyl-3-(2-oxo-3,6-dihydroimidazo[4,5-d]pyrrolo[2,3-b]pyridine-1(2H)-yl)-piperidine-1-yl]carbonyl}pyrrolidine-2-carbonitrile] | 0.86
N#Cc1ccc(N2CC[C@@H](Nc3c(C(N)=O)cnc4[nH]ccc34)[C@@H](F)C2)nn1 (racemic) [Example 6, 4-{[(3S,4R)-1-(6-cyanopyridazine-3-yl)-3-fluoropiperidine-4-yl]amino}-1H-pyrrolo[2,3-b]pyridine-5-carboxamide and 4-{[(3R,4S)-1-(6-cyanopyridazine-3-yl)-3-fluoropiperidine-4-yl]amino}-1-1H-pyrrolo[2,3-b]pyridine-5-carboxamide] | 0.76
C[C@@H]1CCN(C(=O)CC#N)C[C@@H]1n1nc(N)c2cnc3[nH]ccc3c21 (racemic) [Example 21] | 0.52
C[C@@H]1CCN(C(=O)CC#N)C[C@@H]1n1[nH]c(=O)c2cnc3[nH]ccc3c21 (racemic) [Example 22] | 1.7
N#Cc1ccc(N2CC[C@@H](Nc3c(C(N)=O)cnc4[nH]ccc34)[C@@H](F)C2)nc1 (racemic) [Example 41] | 1.1
C[C@H]1CN(c2ccc(C#N)cn2)CC[C@H]1Nc1c(C(N)=O)cnc2[nH]cnc12 (racemic) [Example 49] | 2.2
C[C@@H]1CN(c2ccc(C#N)cn2)CC[C@@H]1Nc1c(C(N)=O)cnc2[nH]ccc12 (racemic) [Example 65] | 0.78
C[C@@H]1CN(c2ccc(C#N)nn2)CC[C@@H]1Nc1c(C(N)=O)cnc2[nH]ccc12 (racemic) [Example 66] | 1
C[C@@H]1CCN(c2ccc(C#N)cn2)C[C@@H]1n1[nH]c(=O)c2cnc3[nH]ccc3c21 (racemic) [Example 72] | 1.6
CNC(=O)C(=O)Nc1nn([C@H]2CN(c3ccc([N+](=O)[O-])cn3)CC[C@H]2C)c2c1cnc1[nH]ccc12 (racemic) [Example 77] | 4.8
N#Cc1ccc(N2CC[C@@H](Nc3c(C(N)=O)cnc4[nH]ccc34)[C@H](F)C2)nc1 (racemic) [Example 82] | 2.7
NC(=O)c1cnc2[nH]ccc2c1N[C@@H]1CCN(c2ccc(C(F)(F)F)nn2)C[C@@H]1F (racemic) [Example 91] | 3.2
C[C@@H]1CCN(C(=O)N2CCC=N2)C[C@@H]1n1c(=O)[nH]c2cnc3[nH]ccc3c21 (racemic) [Example 110] | 10
Nc1nn(C2CCCCCC2)c2c1cnc1[nH]ccc12 [Example 12, 1-cycloheptyl-1,6-dihydropyrazolo-[3,4-d]pyrrolo[2,3-b]pyridine-3-amine] | 10
N#Cc1ccc(N2CCC(Nc3c(C(N)=O)cnc4[nH]ccc34)CC2)cc1 [Example 58] | 3.4
N#Cc1ccc(N2CC[C@@H](Nc3c(C(N)=O)cnc4[nH]ccc34)[C@@H](F)C2)nc1 [Example 94] | 0.3
CC[C@@H]1CCCC[C@@H]1n1nc(N)c2cnc3[nH]ccc3c21 [Example 129] | 3.8

same assay, conditions: reference compounds produced according to the cited publications, compared in the JAK3 test

SMILES | IC50 [nM]
C[C@@H]1CCN(S(=O)(=O)c2cccnc2)C[C@@H]1N(C)c1ccnc2[nH]ccc12 [Reference compound A, reference compound] | 230
CS(=O)(=O)N1CCCC(Nc2c(Cl)cnc3[nH]ccc23)C1 (centres unmarked) [Reference compound B, reference compound] | 31
